In patent US10100052B2, “Compounds for the treatment of hepatitis B virus infection” (Gilead Sciences, Inc., priority 2016, dated 2018):

Experiments:
HBsAg = test: PHH assay for inhibition of HBsAg; type: cell-based, genotype D (AD38-derived) HBV in primary human hepatocytes; settings: Hepatitis B virus, 288 h, read-out: HBsAg EC50
Method: Primary human hepatocytes (PHH) (Bioreclamation IVT) were plated on collagen-coated flasks using Plating Media (Life Technologies) containing William's Medium E supplemented with 1% penicillin/streptomycin, 4 μg/mL human recombinant insulin, 2 mM GlutaMAX, 15 mM HEPES, 1 μM dexamethasone, 5% fetal bovine serum, and 0.2% Torpedo Antibiotic Mix (Bioreclamation IVT). After a 4-hour incubation at 37° C., cells were switched to Maintenance Media (Life Technologies) containing William's Medium E supplemented with 0.5% penicillin/streptomycin, 6.25 µg/mL human recombinant insulin, 6.25 μg/mL human transferrin, 6.25 ng/mL selenous acid, 1.25 mg/mL bovine serum albumin, 5.35 μg/mL linoleic acid, 2 mM GlutaMAX, 15 mM HEPES, 0.1 μM dexamethasone, 2% fetal bovine serum, 2% DMSO, and 0.2% Torpedo Antibiotic Mix (Bioreclamation IVT). On the next day, PHH were infected with 500 genome equivalent per cell of genotype D (AD38-derived) HBV in Maintenance Media supplemented with 4% PEG 8000 (Promega). After 24 hour incubation, cells were washed three times with William's Medium E and fed with fresh Maintenance Media. At 3 days after infection, infected PHH cells were seeded on 96-well plates pre-coated with collagen at a density of 65000 cells per well containing serially diluted solutions of certain compounds disclosed herein or DMSO (1% final concentration) in a final volume of 125 μl of Maintenance Media (Life Technologies) containing William's Medium E supplemented with 0.5% penicillin/streptomycin, 6.25 μg/mL human recombinant insulin, 6.25 μg/mL human transferrin, 6.25 ng/mL selenous acid, 1.25 mg/mL bovine serum albumin, 5.35 μg/mL linoleic acid, 2 mM GlutaMAX, 15 mM HEPES, 0.1 μM dexamethasone, 5% fetal bovine serum, 1 mM 1-amininobenzotriaole, and 0.2% Torpedo Antibiotic Mix (Bioreclamation IVT). Media with compounds was replenished every 2-3 days. After an incubation time of 12 days, secreted HBsAg in the supernatant were measured using a multiplex chemiluminescent (Mesoscale discovery, MSD) assay using capture and detection antibody pairs specific for HBsAg. Comparative Example 1 and Comparative Example 2 have the following structures and were prepared according to International Publication No. WO 2015/113990.

MT-4 cytotoxicity assay = type: cell-based; settings: human, MT-4 cells; five days incubation, Cell Titer Glo
Method: The MT-4 cell line (HTLV-1 transformed, human T lymphoblastoid cells) was obtained from the NIH AIDS Reagent program (Bethesda, Md.). MT-4 cells were maintained in RPMI-1640 supplemented with 10% fetal bovine serum (FBS, Hyclone, Logan, Utah). All cell culture media were also supplemented with 100 Units/mL penicillin, 100 μg/mL streptomycin (Gibco). For the MT-4 cytotoxicity assay, 0.4 μL of serially diluted solutions of certain compounds disclosed herein were added to 40 μL of cell maintenance media in 384-well black, solid bottom plate using a Biomek FX workstation (Beckman Coulter). Two thousand cells in 35 μL were added to each well using a Biotek uFlow Workstation (Biotek). Each assay plate contained 10 μM puromycin (final concentration) and 0.5% DMSO in RPMI-1640 as positive and negative controls, respectively. Assay plates were incubated for five days at 37° C. in an incubator set at 5% CO2 and 90% humidity. After five days, 22 μL of Cell Titer Glo reagent (Promega) was added to the assay plates with a Biotek uFlow Workstation. Plates were subsequently placed on a Perkin Elmer Envision Plate Reader for five minutes before the luminescence signal was read. CC50 values were calculated by non-linear regression using Pipeline Pilot software by applying a four parameter fit equation (Accelrys, San Diego, Calif.) and are reported in the following Table 2.

[1] = Pharmacokinetic analysis following intravenous administration to rats; type: in vivo; settings: male, Sprague-Dawley, rat, intravenous infusion over 30 min, 1 mg/kg; for clearance / Vd: plasma; for Vd: read-out: Vss; for half-life: terminal plasma half-life
Method: Pharmacokinetic analysis was performed on various test compounds following intravenous or oral administration to male Sprague-Dawley rats.
For pharmacokinetic analysis of intravenously administered compounds, the test compounds were formulated in 5% NMP, 30% PG, 45% PEG 300 and 20% water at 0.5 mg/mL for IV infusion. For pharmacokinetic analysis following oral administration, compounds were formulated in the same vehicle and concentration.
Each dosing group consisted of 3 male, naïve Sprague-Dawley rats. At dosing, animals weighed approximately 0.28 kg. The animals were fasted overnight prior to dose administration and up to 4 hr after dosing. For studies of intravenous administration, the test article was administered to the animals by intravenous infusion over 30 min. The rate of infusion was adjusted according to the body weight of each animal to deliver a dose of 1 mg/kg. For studies of oral administration, the test article was administered according to the body weight of each animal to deliver a dose of 5 mg/kg.
For pharmacokinetic analysis of intravenously administered compounds, serial venous blood samples (approximately 0.3 mL each) were taken from each animal at 0, 0.250, 0.483, 0.583, 0.750, 1.50, 3.00, 6.00, 8.00, 12.0, and 24.0 hours after dosing. The blood samples were collected into Vacutainer™ tubes containing EDTA-K2 as the anti-coagulant and were immediately placed on wet ice pending centrifugation for plasma. An LC/MS/MS method was used to measure the concentration of the test compound in plasma. An aliquot of 100 μL of each plasma sample was added to a clean 96 well plate, and 400 μL of cold acetonitrile/internal standard solution (ACN)/(ISTD) was added. After protein precipitation, an aliquot of 100 μL of the supernatant was transferred to a clean 96-well plate and diluted with 175 μL of water. An aliquot of 10 μL of the above solution was injected into an ABSciex API-4000 LC/MS/MS system utilizing a HyPurity C18 HPLC column (30×2.1 mm, 3 m; Thermo-Hypersil Part #22103-032130). An Agilent 1200 series binary pump (P/N G1312A Bin Pump) was used for elution and separation, and an HTS Pal autosampler (LEAP Technologies, Carrboro, N.C.) was used for sample injection. A TSQ Quantum Ultra triple quadrupole mass spectrometer was utilized in selective reaction monitoring mode (Applied Biosystems, Foster City, Calif.). Liquid chromatography was performed using two mobile phases: mobile phase A contained 0.1% formic acid and 1% isopropanol in water; and mobile phase B contained 0.1% formic acid and 1% isopropanol in acetonitrile. Non-compartmental pharmacokinetic analysis was performed on the plasma concentration-time data.
The resulting data are shown in the first three columns of Table 4. In Table 4, CL refers to clearance, which characterizes the rate at which drug is removed from plasma. The lower the clearance of a drug is, the longer the elimination half-life is in the body. Vss refers to the steady state volume of distribution and indicates how well a drug is distributed into the tissues. The larger the Vss is, the longer the elimination half-life is in the body. T1/2 refers to the terminal plasma half-life of the compound.

Row | SMILES | EC50 (HBsAg) [nM] | CC50 at 5 days (MT-4 cytotoxicity assay) [nM] | clearance [1] [mL/min/kg] | Vd [1] [L/kg] | half-life [1] [h]
1 | COCCCOc1cc2c(cc1Cl)-c1cc(=O)c(C(=O)O)cn1[C@H](C(C)(C)C)C2 [Comparative Example 2] | 0.5 | 5700 | 5.05 | 0.661 | 1.99
2 | COCCCOc1cc2c(cc1Cl)-c1cc(=O)c(C(=O)O)cn1[C@H](C1(C)CC1)C2 [Comparative Example 1] | 1.8 | 4200 | 5.67 | 0.57 | 1.62
3 | COCCCOc1cc2c(cc1Cl)-c1cc(=O)c(C(=O)O)cn1N(C(C)(C)C)C2 [Example 2, 6-(tert-Butyl)-10-chloro-9-(3-methoxypropoxy)-2-oxo-6,7-dihydro-2H-pyrido[2,1-a]-phthalazine-3-carboxylic acid] | 3 | > 10000 | 2.97 | 0.623 | 3.34
